Laboratory results reported in patent publication US20130184272A1, “DIABETES THERAPEUTIC AGENT” (TAKEDA PHARMACEUTICAL COMPANY LIMITED, priority 2010, published 2013).

What was measured:
Female KKA^y mice = assay: Anti-diabetes action and dyslipidemia improving effect in KKA^y mouse; type: in vivo; settings: mixed feed dose 0.01 %, 2 weeks; control group = 100
Protocol: Female KKA^y mice (12-week-old, CLEA Japan, Inc.) were bred while allowing free ingestion of both feed and water. The mice were bred for acclimation with powder CE-2 (CLEA Japan, Inc.) from 2 weeks before administration of the compound. The body weight and plasma markers were measured and, at 14 weeks of age, they were divided such that the measured values were uniform with those of the control group. The compound of Reference Example 1, 2, 7, 8, 9 or 22 was administered for 2 weeks in a mixed feed (0.01-0.0001%). On the last day, plasma levels of glucose, insulin, total cholesterol and neutral lipid were measured.

[1] = system: Male C57BL/6J mice on a high-fat diet; assay: Antiobesity, dyslipidemia and diabetes improving effect in mouse fed with high-fat diet; type: in vivo; set-up: plasma leptin (mg/dL): unit not given here; settings: for epididymal fat mass / gastrocnemius muscle weight (g/100 g body weight) / hepatocyte weight / mesenteric fat mass: Day 38
Protocol: Male C57BL/6J mice (CLEA Japan, Inc.) were bred from 5-week-old on a high-fat diet (D12451, research diet) while allowing free ingestion of both feed and water to prepare obesity mice. The mice were bred for acclimation for 2 weeks from 21-week-old. The body weight and plasma markers were measured when 23-week-old, the mice were divided into 6 groups (6 per group) such that the values thereof were uniform, and Reference Example 1 (0.01-0.1 mg/kg) or Reference Example 7 (1-3 mg/kg) was orally administered for 5 weeks. After 14 and 28 days, plasma levels of total cholesterol, neutral lipid, glucose, insulin, leptin, adiponectin and glycated hemoglobin were measured. On the last day, the mice were autopsied, and weights of mesenteric fat, epididymal fat, liver and gastrocnemius muscle were measured. The data of Table 18 show mean±standard deviation at n=5-6 (n is the number of samples).

Structure (SMILES): Cn1ncc2c1-c1c(Oc3cccnc3)sc(C(N)=O)c1CC2 [Ref. Ex. 7, 1-methyl-8-(pyridin-3-yloxy)-4,5-dihydro-1H-thieno[3,4-g]indazole-6-carboxamide]
- plasma glucose (%) (Female KKA^y mice): 40.3 ± 4.5%
- plasma insulin (%) (Female KKA^y mice): 2.9 ± 1.7%
- plasma neutral lipid (%) (Female KKA^y mice): 33.9 ± 8.6%
- plasma total cholesterol (%) (Female KKA^y mice): 64.8 ± 12.0%
- average amount of ingestion ([1]; 1 mg/kg oral): 3.6 ± 0.2 g/day
- body weight (g) change ([1]; 1 mg/kg oral): 4.0 ± 1.5 g
- body weight ([1]; 1 mg/kg oral, Day 0): 41.2 ± 1.8 g
- glycated hemoglobin (%) ([1]; 1 mg/kg oral, Day 0): 4.4 ± 0.1%
- plasma adiponectin (μg/dL)) ([1]; 1 mg/kg oral, Day 0): 18.3 ± 2.8 µg/dL
- plasma glucose ([1]; 1 mg/kg oral, Day 0): 168.4 ± 29.1 mg/dL
- plasma insulin ([1]; 1 mg/kg oral, Day 0): 5.3 ± 3.5 ng/mL
- plasma leptin (mg/dL) ([1]; 1 mg/kg oral, Day 0): 61.4 ± 18.1
- plasma neutral fats ([1]; 1 mg/kg oral, Day 0): 69.8 ± 35.0 mg/dL
- plasma total cholesterol ([1]; 1 mg/kg oral, Day 0): 227.2 ± 21.2 mg/dL
- glycated hemoglobin (%) ([1]; 1 mg/kg oral, Day 14): 4.2 ± 0.2%
- plasma adiponectin (μg/dL)) ([1]; 1 mg/kg oral, Day 14): 14.9 ± 3.4 µg/dL
- plasma glucose ([1]; 1 mg/kg oral, Day 14): 157.5 ± 19.4 mg/dL
- plasma insulin ([1]; 1 mg/kg oral, Day 14): 7.8 ± 3.3 ng/mL
- plasma leptin (mg/dL) ([1]; 1 mg/kg oral, Day 14): 86.9 ± 12.0
- plasma neutral fats ([1]; 1 mg/kg oral, Day 14): 68.8 ± 16.0 mg/dL
- plasma total cholesterol ([1]; 1 mg/kg oral, Day 14): 213.8 ± 13.0 mg/dL
- glycated hemoglobin (%) ([1]; 1 mg/kg oral, Day 28): 4.0 ± 0.1%
- plasma adiponectin (μg/dL)) ([1]; 1 mg/kg oral, Day 28): 12.2 ± 2.3 µg/dL
- plasma glucose ([1]; 1 mg/kg oral, Day 28): 149.7 ± 16.9 mg/dL
- plasma insulin ([1]; 1 mg/kg oral, Day 28): 12.3 ± 4.9 ng/mL
- plasma leptin (mg/dL) ([1]; 1 mg/kg oral, Day 28): 96.1 ± 10.2
- plasma neutral fats ([1]; 1 mg/kg oral, Day 28): 62.1 ± 26.1 mg/dL
- plasma total cholesterol ([1]; 1 mg/kg oral, Day 28): 216.8 ± 20.7 mg/dL
- body weight ([1]; 1 mg/kg oral, Day 37): 45.6 ± 3.0 g
- epididymal fat mass ([1]; 1 mg/kg oral): 0.78 ± 0.11 g
- gastrocnemius muscle weight (g/100 g body weight) ([1]; 1 mg/kg oral): 0.360 ± 0.014 g/100 g body weight
- hepatocyte weight ([1]; 1 mg/kg oral): 1.85 ± 0.30 g
- mesenteric fat mass ([1]; 1 mg/kg oral): 0.95 ± 0.14 g
- average amount of ingestion ([1]; 3 mg/kg oral): 3.7 ± 0.2 g/day
- body weight (g) change ([1]; 3 mg/kg oral): 2.3 ± 2.3 g
- body weight ([1]; 3 mg/kg oral, Day 0): 41.1 ± 1.7 g
- glycated hemoglobin (%) ([1]; 3 mg/kg oral, Day 0): 4.6 ± 0.1%
- plasma adiponectin (μg/dL)) ([1]; 3 mg/kg oral, Day 0): 17.0 ± 2.9 µg/dL
- plasma glucose ([1]; 3 mg/kg oral, Day 0): 176.9 ± 30.1 mg/dL
- plasma insulin ([1]; 3 mg/kg oral, Day 0): 5.1 ± 2.3 ng/mL
- plasma leptin (mg/dL) ([1]; 3 mg/kg oral, Day 0): 62.3 ± 10.9
- plasma neutral fats ([1]; 3 mg/kg oral, Day 0): 71.6 ± 28.8 mg/dL
- plasma total cholesterol ([1]; 3 mg/kg oral, Day 0): 231.9 ± 29.9 mg/dL
- glycated hemoglobin (%) ([1]; 3 mg/kg oral, Day 14): 4.0 ± 0.3%
- plasma adiponectin (μg/dL)) ([1]; 3 mg/kg oral, Day 14): 15.2 ± 3.0 µg/dL
- plasma glucose ([1]; 3 mg/kg oral, Day 14): 172.8 ± 32.3 mg/dL
- plasma insulin ([1]; 3 mg/kg oral, Day 14): 6.2 ± 3.0 ng/mL
- plasma leptin (mg/dL) ([1]; 3 mg/kg oral, Day 14): 73.5 ± 12.6
- plasma neutral fats ([1]; 3 mg/kg oral, Day 14): 47.0 ± 9.2 mg/dL
- plasma total cholesterol ([1]; 3 mg/kg oral, Day 14): 192.8 ± 12.5 mg/dL
- glycated hemoglobin (%) ([1]; 3 mg/kg oral, Day 28): 4.0 ± 0.2%
- plasma adiponectin (μg/dL)) ([1]; 3 mg/kg oral, Day 28): 12.8 ± 0.8 µg/dL
- plasma glucose ([1]; 3 mg/kg oral, Day 28): 155.9 ± 12.7 mg/dL
- plasma insulin ([1]; 3 mg/kg oral, Day 28): 5.8 ± 1.4 ng/mL
- plasma leptin (mg/dL) ([1]; 3 mg/kg oral, Day 28): 77.3 ± 16.3
- plasma neutral fats ([1]; 3 mg/kg oral, Day 28): 53.6 ± 35.6 mg/dL
- plasma total cholesterol ([1]; 3 mg/kg oral, Day 28): 194.1 ± 18.4 mg/dL
- body weight ([1]; 3 mg/kg oral, Day 37): 44.0 ± 2.4 g
- epididymal fat mass ([1]; 3 mg/kg oral): 0.77 ± 0.15 g
- gastrocnemius muscle weight (g/100 g body weight) ([1]; 3 mg/kg oral): 0.375 ± 0.020 g/100 g body weight
- hepatocyte weight ([1]; 3 mg/kg oral): 1.74 ± 0.30 g
- mesenteric fat mass ([1]; 3 mg/kg oral): 0.77 ± 0.24 g
- body weight (in words) ([1]; obese mouse model fed with a high-fat diet): clear body weight decreasing action
